Results on 1 substance are retold here after patent publication US20120230970A1, “METHOD FOR TREATING PERVASIVE D[…]” (CUREMARK, LLC, priority 1999, published 2012).

The test system of test [1] is autistic children. In words: Fecal Chymotrypsin Test after secretin infusion in autistic children (Experiments 1 and 2). To be noted: 6 Months Post-Secretin Administration. Format: in vivo, human. On the procedure:
In this experiment, 16 children diagnosed as having autism were administered the following Fecal Chymotrypsin Test in accordance with an embodiment of the invention. First, approximately 2 grams of stool were collected from each child and placed in a sterile container (although it is to be understood that any quantity of stool may be collected, as 2 grams of stool is not a required amount). Each stool sample was then analyzed using, e.g., an enzymatic photospectrometry analysis as is known by those skilled in the art, to determine the level of fecal chymotrypsin in the stool. Although the enzymatic photospectrophotometry process is preferred, any suitable conventional method may be used for measuring the fecal chymotrypsin levels. The measured chymotrypsin levels of the 16 autistic children are illustrated in FIG. 13.
After determining the chymotrypsin levels of the stools, each of these levels were compared with threshold chymotrypsin levels to determine if the child was likely to benefit from secretin administration. By way of example, with the fecal chymotrypsin tests of the stool samples being performed at 30° C., normal levels of chymotrypsin are deemed to lie above 8.4 U/gram, whereas pathologically abnormal levels are deemed to lie below 4.2 U/gram. In addition, chymotrypsin levels between 8.4 U/gram and 4.2 U/gram are considered equivocal, and further testing of the individual's fecal chymotrypsin levels over a period of time should be performed. […]
The results of Experiment 1 are illustrated in FIGS. 1-14. For instance, approximately one week after the first secretin infusion, the fecal chymotrypsin level of each of the 16 autistic children was measured again. […]
In this experiment, 37 autistic children with abnormal fecal chymotrypsin levels were administered secretin over the course of 6 months using the secretin infusion process described above. Their fecal chymotrypsin (FC) levels were measured weekly using the fecal chymotrypsin test described above.

In test [2] the test system is autistic children. Kind of test: CARS (Childhood Autism Rating Scale) test pre- and post-secretin administration (Experiment 1). Format: in vivo, human. Conditions: 16 autistic children; 3 weeks post infusion vs pre-secretin. The procedure: Upon determining that a given child was likely to benefit from secretin administration based on the results of the fecal chymotrypsin test, the child was administered a CARS (Childhood Autism Rating Scale) test prior to being scheduled for secretin infusion.
For each of the 16 autistic children tested, a preferred secretin infusion process according to the present invention was performed involving the administering of 1 U/kg of body weight of Secretin-Ferring for a period of nine months at intervals of approximately 6 weeks. In addition, another CARS test was administered to each of the 16 autistic children 3 weeks post secretin administration to determine if their autism had changed post infusion.
A preferred secretin infusion process includes the initial step of prepping an arm of the candidate child with an IV injection of saline. A test dose of 1 U of Secretin-Ferring is then administered to the child. Approximately one minute after, infusion, the child is examined for signs of allergic reaction including rash, increased heart rate, and increase of blood pressure. […] Subsequently, each child receives a 1 U/kg of body weight infusion of Secretin-Ferring approximately every 6 weeks for 9 months. It is to be understood that any commercially available form of secretin may be used. […]

Test [3] has as its system children diagnosed with Autism. To be noted: secretin given as diagnostic procedure during upper gastrointestinal endoscopy; Horvath et al. 1998; cited from earlier work.
Where [4] appears, read: of 37 children (pre-secretin 0).

For the substance secretin, in the test on autistic children [1] (setting [4]), the “# Autistic Children w/Equivocal FC levels” value worked out at 2 and the “# Autistic Children w/normal FC levels” value stood at 34. Also, the “# Autistic Children w/Abnormal FC levels” value in the test on autistic children [1] (of 37 children (pre-secretin 37)) stood at 1. Moreover, the CARS component scores result with autistic children [2] is recorded as “demonstrated improvement except for the fear component which increased”. For the same substance, the “effect on symptoms associated with Autism” value in test [3] is “ameliorating the symptoms associated with Autism”.
